Experimental findings from patent publication US9226919B2, “Methods for dosing an orally active 1,2,4-oxadiazole” (PTC Therapeutics, Inc., priority 2006, dated 2016) are described below.

Each structure is given as a SMILES string. “And” between values parts separate entries of the source, which are not always exact repeats. Equal entries are not always repeated. Where two headings read alike, the source gives them in different places.

The test system of one series is dystrophin. As to the kind of experiment: Dystrophin expression in EDB muscle biopsy by immunofluorescence, Phase 2 DMD study. It counts as in vivo, human. Particulars: for In Vivo Expression Response (dystrophin): individual DMD patients, 28 days. As for the experimental part:
Biopsy of the EDB muscle and overlying skin from one foot is performed under local anesthesia and conscious sedation (in some cases, general anesthesia may be required) prior to treatment, and from the other foot on the last day of treatment. The biopsy procedure is performed using standardized techniques (Stedman, 2000, Human Gene Therapy 11:777-90). The entire muscle belly (whenever possible) is removed in the procedure. At the time of collection of the biopsy prior to treatment, the muscle specimen is divided into at least 3 fragments and the biopsy specimen collected on the last day of treatment is divided into at least 2 fragments. The biopsy specimen is placed on a telfa gauze sponge moistened with Ringer's saline. The biopsy specimen is viewed at low power under a stereo dissection microscope to establish fiber orientation. The muscle is then transected using a sharp scalpel in a cross sectional fashion (perpendicular to the orientation of the fibers) whenever possible and allowed to rest for 2 minutes to allow for the cessation of spasm. The sample is then frozen in liquid nitrogen cooled isopentane, transferred to a liquid nitrogen reservoir and held 1 inch above the liquid/vapor interface for 2 minutes of slow cooling and isopentane evaporation before immersion in the liquid nitrogen, and wrapped into precooled (in liquid nitrogen and stored on dry ice) foil labeled with the study number, site number, patient number, date, patient initials, and foot side (right foot or left foot).
All sample containers are clearly labeled in a fashion that identifies the subject and the collection date. Labels are fixed to the sample containers in a manner that prevents the label from becoming detached. Samples are shipped for analysis/culture/central review immediately after the procedure is performed. For detection of dystrophin, 3 commercially available antibodies that recognize the C-terminus, the N-terminus, and the rod domain of the protein are employed. For detection of the sarcoglycan and dystroglycan complex, commercially available antibodies against α-, β-, γ-, and δ-sarcoglycan, and β-dystroglycan are used when possible. Epifluorescence microscopy is used in the analysis; images are captured by CCD camera, after normalization of the fluorescence intensity against a normal muscle specimen. Images are stored digitally and preserved for future review, and final evaluation at the completion of the study. Tissues are also processed for detection of dystrophin, the sarcoglycans, and β-dystroglycan by Western blotting using the same antibodies. Microscopic images are captured and preserved for future review, and for final evaluation at the completion of the study. Remaining muscle tissue samples are preserved for confirmatory assays of mRNA and proteins involved in DMD. […]

Series [1] is described as follows: Plasma pharmacokinetics, Phase 2 Duchenne muscular dystrophy study. The format is in vivo, human. To be noted: for AUC(0-t) / Cmax: human, oral. The text has this:
FIG. 1 provides the plasma 3-[5-(2-fluoro-phenyl)-[1,2,4]oxadiazol-3-yl]-benzoic acid concentration-time profiles and PK parameters from 37 of 38 patients in a Phase 2 Duchenne muscular dystrophy study at 4-, 4-, and 8-mg/kg; 10-, 10-, and 20-mg/kg; and 20-, 20- and 40-mg/kg dose levels. The data from one patient was excluded from analysis due to insufficient data.
3-[5-(2-Fluoro-phenyl)-[1,2,4]oxadiazol-3-yl]-benzoic acid was provided in a formulation described herein. Treatment was administered over 28 days for each treatment cohort. An initial cohort of patients (n=6) were treated daily for 28 days with 3-[5-(2-fluoro-phenyl)-[1,2,4]oxadiazol-3-yl]-benzoic acid at 4-, 4-, and 8-mg/kg TID. After review of the clinical safety results, a second cohort of patients (n=20) were treated daily for 28 days with 3-[5-(2-fluoro-phenyl)-[1,2,4]oxadiazol-3-yl]-benzoic acid at 10-, 10-, and 20-mg/kg TID. Thus, each patient received a total of 84 doses of 3-[5-(2-fluoro-phenyl)-[1,2,4]oxadiazol-3-yl]-benzoic acid.
Blood for 3-[5-(2-fluoro-phenyl)-[1,2,4]oxadiazol-3-yl]-benzoic acid concentrations is collected immediately pre-dose and at 3 hours after administration of the first daily dose of study drug on the second day of each visit.
The study drug dosing and sample collection times are recorded. If a heparinized venous catheter is used for sample collection in order to avoid repeated needle sticks, at least 2 mL of blood is removed and discarded prior to each sample collection in order to avoid heparin contamination of the sample. All attempts are made to collect the blood samples at, or within ±5 minutes of, the scheduled time. The timing of the blood draw is in relation to the study drug dosing time.
Each sample comprises 2 mL of venous blood drawn into a 5-mL Vacutainer® or equivalent tube with K3-EDTA as the anticoagulant. Immediately after collection, the tube is gently inverted 8 to 10 times to mix the anticoagulant with the blood sample. The tube is stored upright on ice until centrifugation; centrifugation and sample processing are performed within 1 hour of sample collection. The plasma fraction is separated by placing the collection tube into a refrigerated centrifuge (4 to 8° C.) in a horizontal rotor (with a swing-out head) for a minimum of 15 minutes at 1500 to 1800 relative centrifugal force (RCF). The plasma fraction is withdrawn by pipette and divided into 2 polypropylene freezing tubes (with each tube receiving approximately equal aliquots). All sample collection and freezing tubes are clearly labeled in a fashion that identifies the subject, the study period, and the collection date and time. Labels are fixed to freezing tubes in a manner that will prevent the label from becoming detached after freezing. After processing, samples are placed into a freezer at approximately −20° C. (or lower).
Samples are stored for analysis of 3-[5-(2-fluoro-phenyl)-[1,2,4]oxadiazol-3-yl]-benzoic acid at the end of the study using a validated high performance liquid chromatography with tandem mass spectrometry (HPLC/MS-MS) method. Thereafter, samples are retained for potential later analyses.

Setting [2] is: 10, 10, 20 mg/kg TID, N = 20, mean.
The mark [3] stands for this setting: 20, 20, 40 mg/kg TID, N = 11, mean.

For `O=C(O)c1cccc(-c2noc(-c3ccccc3F)n2)c1` [3-[5-(2-fluoro-phenyl)-[1,2,4]oxadiazol-3-yl]-benzoic acid], the “In Vivo Expression Response (dystrophin)” value is “Yes (6×) and No (6×)” with dystrophin (High Dose: 20, 20, 40 mg/kg); “Yes (4×) and No (2×)” in the series with dystrophin (Low Dose: 4, 4, 8 mg/kg); “Yes (10×) and No (10×)” with dystrophin (Middle Dose: 10, 10, 20 mg/kg). Further, the “Extensor digitorum brevis muscle membrane dystrophin on staining for the C-terminal domain” value in the series on dystrophin (some patients at both dose levels, day 28 relative to baseline) is on record as “Partial restoration or increase”. Also, the “Cmin, Day 1” value in series [1] (4, 4, 8 mg/kg TID, N = 6, mean) came to 500 ng/mL; in series [1] (setting [2]), 3800 ng/mL; in series [1] (setting [3]), 9600 ng/mL. For the same compound, the “Cmin, Day 28” value in series [1] (4, 4, 8 mg/kg TID, N = 6, mean) was found to be 600 ng/mL; in series [1] (setting [2]), 3400 ng/mL; in series [1] (setting [3]), 6700 ng/mL. Also, the AUC(0-t) in series [1] (8 mg/kg, 4, 4, 8 mg/kg TID, N = 6, mean, read-out: AUC0-24, Day 1) is 87 µg·h/mL; in series [1] (8 mg/kg, 4, 4, 8 mg/kg TID, N = 6, mean, read-out: AUC0-24, Day 28), 91 µg·h/mL; in series [1] (20 mg/kg, 10, 10, 20 mg/kg TID, N = 20, mean, read-out: AUC0-24, Day 1), 291 µg·h/mL; in series [1] (20 mg/kg, 10, 10, 20 mg/kg TID, N = 20, mean, read-out: AUC0-24, Day 28), 235 µg·h/mL; in series [1] (40 mg/kg, 20, 20, 40 mg/kg TID, N = 11, mean, read-out: AUC0-24, Day 1), 866 µg·h/mL; in series [1] (40 mg/kg, 20, 20, 40 mg/kg TID, N = 11, mean, read-out: AUC0-24, Day 28) it was 490 µg·h/mL. The Cmax stood at 10000 ng/mL in series [1] (8 mg/kg, 4, 4, 8 mg/kg TID, N = 6, mean, read-out: Cmax, Day 1); 11000 ng/mL in series [1] (8 mg/kg, 4, 4, 8 mg/kg TID, N = 6, mean, read-out: Cmax, Day 28); 27000 ng/mL in series [1] (20 mg/kg, 10, 10, 20 mg/kg TID, N = 20, mean, read-out: Cmax, Day 1); 22000 ng/mL in series [1] (20 mg/kg, 10, 10, 20 mg/kg TID, N = 20, mean, read-out: Cmax, Day 28); 76000 ng/mL in series [1] (40 mg/kg, 20, 20, 40 mg/kg TID, N = 11, mean, read-out: Cmax, Day 1); 46000 ng/mL in series [1] (40 mg/kg, 20, 20, 40 mg/kg TID, N = 11, mean, read-out: Cmax, Day 28).

In general, Cmax refers to the highest concentration seen after dosing.
